# Like-named read-outs stand apart in the source and are kept apart here.
# Experiments:
# Format in all cases: cell-based
# [1] = system: Candida albicans; experiment: Antifungal activity (stated characteristic of the compound)
# [2] = system: Saccharomyces cerevisiae; experiment: Spectrum of activity, agar diffusion zones of inhibition; details: SAB agar, 24 hours, read-out: Zones of inhibition (diameter)
# Experimental: (§1) Method—The spectrum of activity was determined by placing solutions of the compound, prepared in sodium phosphate buffer, pH 6.6, in wells in seeded Sabouraud's Dextrose Agar. Activity was assessed by measuring the zones of inhibition following incubation at 37° C. (yeasts and Aspergillus niger) or 30° C. (other filamentous fungi) for 24 hours.
# [3] = system: Aspergillus niger; experiment: as above; details: SAB agar, 24 hours, read-out: Zones of inhibition (diameter)
# Experimental: as §1
# [4] = system: Pityrosporum canis 0024RE; experiment: as above; details: SAB agar, 24 hours, read-out: Zones of inhibition (diameter)
# Experimental: as §1
# [5] = system: Trichophyton mentagrophytes 569A; experiment: as above; details: SAB agar, 24 hours, read-out: Zones of inhibition (diameter)
# Experimental: as §1
# [6] = system: Hendersonula torulides TH65; experiment: as above; details: SAB agar, 24 hours, read-out: Zones of inhibition (diameter)
# Experimental: as §1
# [7] = system: Candida albicans 73/079; experiment: as above; details: SAB agar, 24 hours, read-out: Zones of inhibition (diameter)
# Experimental: as §1
# [8] = system: Rhizopus oryzae 21602; experiment: as above; details: Rhizopus arrhizus, SAB agar, 24 hours, read-out: Zones of inhibition (diameter)
# Experimental: as §1
# [9] = system: Paecilomyces varioti; experiment: as above; details: SAB agar, 24 hours, read-out: Zones of inhibition (diameter)
# Experimental: as §1
# [10] = system: Crytococcus neoformans 451; experiment: as above; details: SAB agar, 24 hours, read-out: Zones of inhibition (diameter)
# Experimental: as §1
# [11] = system: yeasts and filamentous fungi; experiment: Agar diffusion test, overall spectrum of activity; details: summary of Table 1
# Experimental: as §1
# [12] = system: Aspergillus niger; experiment: Minimal Inhibitory Concentration, broth microtitre dilution; details: 37° C., inoculum 10^4 spores/ml, read-out: Minimum Inhibitory Concentration (MIC)
# Experimental: (§2) Method—The Minimal Inhibitory Concentration (MIC) was determined by diluting the compound in a broth medium in a microtitre tray. The organisms were diluted and added to the wells to provide a final inoculum of approximately 10^5 cells per ml or 10^4 fungal spores per ml. The trays were incubated at 37° C. and the turbidity of each well noted at intervals. The (MIC) was taken as the lowest concentration (in mg/ml) which prevented significant growth.
# [13] = system: Candida albicans 731079; experiment: as above; details: 37° C., inoculum 10^5 cells/ml, read-out: Minimum Inhibitory Concentration (MIC)
# Experimental: as §2
smiles,measurement,setting,value
COC1CC2CCC(C)C(O)(O2)C(=O)C(=O)N2CCCCC2C(=O)OC(C(C)CC2CCC(O)C(OC)C2)CC(=O)C(C)/C=C(\C)C(O)C(O)C(=O)C(C)CC(C)/C=C/C=C/C=C/1C (stereo not drawn),Antifungal activity against Candida albicans,[1],shows antifungal activity
same,zone of inhibition at 100 µg/mL,[2]; CONC 100 μg/ml,34 mm
same,zone of inhibition at 500 µg/mL,[2]; CONC 500 μg/ml,33 mm
same,zone of inhibition at 100 µg/mL,[3]; CONC 100 μg/ml,46 mm
same,zone of inhibition at 500 µg/mL,[3]; CONC 500 μg/ml,47 mm
same,zone of inhibition at 100 µg/mL,[4]; CONC 100 μg/ml,0 mm
same,zone of inhibition at 500 µg/mL,[4]; CONC 500 μg/ml,0 mm
same,zone of inhibition at 100 µg/mL,[5]; CONC 100 μg/ml,42 mm
same,zone of inhibition at 500 µg/mL,[5]; CONC 500 μg/ml,43 mm
same,zone of inhibition at 100 µg/mL,[6]; CONC 100 μg/ml,33 mm
same,zone of inhibition at 500 µg/mL,[6]; CONC 500 μg/ml,36 mm
same,zone of inhibition at 100 µg/mL,[7]; CONC 100 μg/ml,29 mm
same,zone of inhibition at 500 µg/mL,[7]; CONC 500 μg/ml,29 mm
same,zone of inhibition at 100 µg/mL,[8]; CONC 100 μg/ml,46 mm
same,zone of inhibition at 500 µg/mL,[8]; CONC 500 μg/ml,47 mm
same,zone of inhibition at 100 µg/mL,[9]; CONC 100 μg/ml,26 mm
same,zone of inhibition at 500 µg/mL,[9]; CONC 500 μg/ml,28 mm
same,zone of inhibition at 100 µg/mL,[10]; CONC 100 μg/ml,29 mm
same,zone of inhibition at 500 µg/mL,[10]; CONC 500 μg/ml,29 mm
same,Spectrum of activity in the agar diffusion test,[11],broad spectrum activity
same,MIC,"[12]; 24 h, day 1 of incubation",16 µg/mL
same,MIC,"[12]; 48 h, day 2 of incubation",32 µg/mL
same,MIC,"[13]; Candida albicans, 731079, 24 h, day 1 of incubation",32 µg/mL
same,MIC,"[13]; Candida albicans, 731079, 48 h, day 2 of incubation",32 µg/mL

# — patent US6358969B1, “3-desmethylrapamycin or derivatives thereof, processes for their preparation and their use as antifungal agents and immunosuppressants” (SmithKline Beecham p.l.c., priority 1991, dated 2002)
